Experimental data reported in patent US9988635B2, “Modulation of growth hormone receptor expression and insulin-like growth factor expression” (Antisense Therapeutics Limited, priority 2003, dated 2018).
In the oligonucleotide strings, read from the 5' end, every base follows the letter of its sugar. An asterisk marks phosphorothioate; unmarked linkages are phosphodiester. Other units and linkages are bracketed, terminal groups are in braces. A string of capitals states the bases alone. e = 2'-O-(2-methoxyethyl) (MOE); [5mC] = 5-methylcytosine; d = 2'-deoxy (DNA)

Test system: mouse growth hormone receptor mRNA
Experiment: Inhibition of mouse growth hormone receptor mRNA levels in b.END cells, quantitative real-time PCR, incl. dose-response
Assay type: cell-based
Conditions: averages from three experiments
Method: The mouse brain endothelial cell line b.END was obtained from Dr. Werner Risau at the Max Plank Instititute (Bad Nauheim, Germany). b.END cells were routinely cultured in DMEM, high glucose (Gibco/Life Technologies, Gaithersburg, Md.) supplemented with 10% fetal calf serum (Gibco/Life Technologies, Gaithersburg, Md.). Cells were routinely passaged by trypsinization and dilution when they reached 90% confluence. Cells were seeded into 96-well plates (Falcon-Primaria #3872) at a density of 3000 cells/well for use in RT-PCR analysis.
When cells reached 65-75% confluency, they were treated with oligonucleotide. For cells grown in 96-well plates, wells were washed once with 100 μL OPTI-MEM™-1 reduced-serum medium (Invitrogen Corporation, Carlsbad, Calif.) and then treated with 130 μL of OPTI-MEM™-1 containing 3.75 μg/mL LIPOFECTIN™ (Invitrogen Corporation, Carlsbad, Calif.) and the desired concentration of oligonucleotide. Cells are treated and data are obtained in triplicate. After 4-7 hours of treatment at 37° C., the medium was replaced with fresh medium. Cells were harvested 16-24 hours after oligonucleotide treatment.
Total RNA was isolated using an RNEASY 96™ kit and buffers purchased from Qiagen Inc. (Valencia, Calif.) following the manufacturer's recommended procedures. Briefly, for cells grown on 96-well plates, growth medium was removed from the cells and each well was washed with 200 μL cold PBS. 150 μL Buffer RLT was added to each well and the plate vigorously agitated for 20 seconds. 150 μL of 70% ethanol was then added to each well and the contents mixed by pipetting three times up and down. The samples were then transferred to the RNEASY 96™ well plate attached to a QIAVAC™ manifold fitted with a waste collection tray and attached to a vacuum source. Vacuum was applied for 1 minute. 500 μL of Buffer RW1 was added to each well of the RNEASY 96™ plate and incubated for 15 minutes and the vacuum was again applied for 1 minute. An additional 500 μL of Buffer RW1 was added to each well of the RNEASY 96™ plate and the vacuum was applied for 2 minutes. 1 mL of Buffer RPE was then added to each well of the RNEASY 96™ plate and the vacuum applied for a period of 90 seconds. The Buffer RPE wash was then repeated and the vacuum was applied for an additional 3 minutes. The plate was then removed from the QIAVAC™ manifold and blotted dry on paper towels. The plate was then re-attached to the QIAVAC™ manifold fitted with a collection tube rack containing 1.2 mL collection tubes. RNA was then eluted by pipetting 140 μL of RNAse free water into each well, incubating 1 minute, and then applying the vacuum for 3 minutes.
Quantitation of growth hormone receptor mRNA levels was accomplished by real-time quantitative PCR using the ABI PRISM™ 7600, 7700, or 7900 Sequence Detection System (PE-Applied Biosystems, Foster City, Calif.) according to manufacturer's instructions. This is a closed-tube, non-gel-based, fluorescence detection system which allows high-throughput quantitation of polymerase chain reaction (PCR) products in real-time. As opposed to standard PCR in which amplification products are quantitated after the PCR is completed, products in real-time quantitative PCR are quantitated as they accumulate. This is accomplished by including in the PCR reaction an oligonucleotide probe that anneals specifically between the forward and reverse PCR primers, and contains two fluorescent dyes. A reporter dye (e.g., FAM or JOE, obtained from either PE-Applied Biosystems, Foster City, Calif., Operon Technologies Inc., Alameda, Calif. or Integrated DNA Technologies Inc., Coralville, Iowa) is attached to the 5′ end of the probe and a quencher dye (e.g., TAMRA, obtained from either PE-Applied Biosystems, Foster City, Calif., Operon Technologies Inc., Alameda, Calif. or Integrated DNA Technologies Inc., Coralville, Iowa) is attached to the 3′ end of the probe. […]

Compared with “227465 (antisense eT*eG*eA*eG*eA*dA*dG*dA*dT*d[5mC]*dT*dG*dG*dA*dT*e[5mC]*eA*eA*eT*e[5mC]) [compound 227465]”, “227458 (antisense eG*eT*eA*e[5mC]*eT*dG*dA*dA*dT*dT*dT*d[5mC]*dA*dT*dA*e[5mC]*eT*e[5mC]*e[5mC]*eA) [compound 227458]” is higher in “% INHIB of mouse growth hormone receptor mRNA levels” value (“% INHIB” for short): 51% for the first, 75% for the second.

First: 227504 (antisense eT*eA*e[5mC]*e[5mC]*eT*dG*dA*dG*dA*d[5mC]*d[5mC]*d[5mC]*d[5mC]*dG*d[5mC]*eG*e[5mC]*eA*eG*e[5mC]) [compound 227504]
Second: 227492 (antisense eT*eA*eA*eA*eA*d[5mC]*dA*dT*dA*dG*dT*dT*dT*dT*dG*eG*eT*eT*eT*eA) [compound 227492]
The “% INHIB” value of the first is higher: 34% for the first, 7% for the second.

First: 227466 (antisense eT*eT*eG*eT*eA*dG*dT*dT*dA*dT*d[5mC]*dA*dT*dG*dA*eA*eT*eG*e[5mC]*e[5mC]) [compound 227466]
Second: 227487 (antisense eT*e[5mC]*eA*eG*eG*d[5mC]*dA*dA*dA*dG*dG*d[5mC]*dA*dA*dA*eG*e[5mC]*eA*eG*eT) [compound 227487]
The “% INHIB” value of the first is higher: 50% for the first, 44% for the second.

Going from “227462 (antisense eG*e[5mC]*eT*eT*eT*dG*dA*dA*dA*dA*dT*dA*dT*dA*dA*e[5mC]*eT*eA*e[5mC]*eA) [compound 227462]” to “227446 (antisense eA*e[5mC]*eA*eA*eA*dG*dA*dT*d[5mC]*d[5mC]*dA*dT*dA*d[5mC]*d[5mC]*eT*eG*eA*eG*eA) [compound 227446]”, the “% INHIB” value rises from 31% to 87%.

First: 227506 (antisense e[5mC]*e[5mC]*eT*e[5mC]*e[5mC]*dA*dG*dT*dA*d[5mC]*d[5mC]*dT*d[5mC]*dG*dG*eA*eG*eT*eT*eT) [compound 227506]
Second: 227470 (antisense e[5mC]*eT*e[5mC]*e[5mC]*eA*dA*dG*dG*dA*dT*dA*d[5mC]*d[5mC]*dA*dG*e[5mC]*eT*eG*eA*eT) [compound 227470]
The “% INHIB” value of the first is lower: 69% for the first, 82% for the second.

First: 227448 (antisense eT*eT*eT*eG*e[5mC]*d[5mC]*dA*dA*dG*dA*dG*dT*dA*dG*d[5mC]*eT*eG*eG*eT*eG) [compound 227448]
Second: 227477 (antisense e[5mC]*eA*e[5mC]*eT*eG*dT*dT*d[5mC]*dA*dT*dG*d[5mC]*dT*dG*dT*eA*eA*eT*eT*eT) [compound 227477]
The “% INHIB” value of the first is lower: 60% for the first, 61% for the second.

Compared with “227478 (antisense eT*eT*eT*eT*eT*dG*dG*d[5mC]*dA*dT*d[5mC]*dT*dG*dA*d[5mC]*eT*e[5mC]*eA*e[5mC]*eA) [compound 227478]”, “227444 (antisense eA*eT*eG*eG*e[5mC]*dT*dG*d[5mC]*dG*d[5mC]*d[5mC]*dT*dG*d[5mC]*dT*eT*eG*eG*e[5mC]*eA) [compound 227444]” is lower in “% INHIB” value: 68% for the first, 53% for the second.

Going from “227447 (antisense eG*e[5mC]*eT*eG*eG*dT*dG*dT*dA*dG*d[5mC]*d[5mC]*dT*d[5mC]*dA*e[5mC]*eT*eT*e[5mC]*e[5mC]) [compound 227447]” to “227461 (antisense eT*eG*e[5mC]*eT*eA*d[5mC]*dT*d[5mC]*d[5mC]*dA*dA*dA*dT*dA*dT*eT*e[5mC]*e[5mC]*eA*eA) [compound 227461]”, the “% INHIB” value falls from 77% to 75%.

Going from “227507 (antisense eG*eT*e[5mC]*e[5mC]*eT*dT*dG*d[5mC]*dT*d[5mC]*d[5mC]*dA*dG*dG*dT*eT*eA*eG*e[5mC]*eA) [compound 227507]” to “227463 (antisense eA*eT*e[5mC]*eA*eG*d[5mC]*dA*dT*d[5mC]*dT*dT*dA*dA*dT*d[5mC]*e[5mC]*eT*eT*eT*eG) [compound 227463]”, the “% INHIB” value falls from 89% to 39%.

Compared with “227493 (antisense eT*e[5mC]*e[5mC]*e[5mC]*eA*dA*d[5mC]*dA*d[5mC]*dA*dG*dA*dT*dT*dT*eA*eA*eA*eA*e[5mC]) [compound 227493]”, “227450 (antisense eT*eG*eG*e[5mC]*eT*dT*dT*d[5mC]*d[5mC]*d[5mC]*dT*dT*dT*dT*dA*eG*e[5mC]*eA*eT*eA) [compound 227450]” is higher in “% INHIB” value: 51% for the first, 71% for the second.

First: 227510 (antisense e[5mC]*eT*e[5mC]*e[5mC]*eA*dG*dA*d[5mC]*dG*dT*dG*dA*d[5mC]*d[5mC]*d[5mC]*eG*eA*e[5mC]*eT*e[5mC]) [compound 227510]
Second: 227454 (antisense eA*eG*eT*eT*eG*dA*dA*dG*dT*dA*dA*d[5mC]*dA*dG*d[5mC]*eT*eG*eT*eT*eT) [compound 227454]
The “% INHIB” value of the first is lower: 64% for the first, 69% for the second.

Compared with “227498 (antisense eT*eT*eG*eT*eA*dA*dA*dA*dA*dT*d[5mC]*dT*dA*dA*d[5mC]*eT*eT*eG*eT*eT) [compound 227498]”, “227515 (antisense eA*eA*eA*eT*eT*d[5mC]*dT*dT*dA*d[5mC]*dT*dT*dG*dT*d[5mC]*e[5mC]*e[5mC]*e[5mC]*eA*eG) [compound 227515]” is lower in “% INHIB” value: 49% for the first, 37% for the second.

Going from “227479 (antisense eA*eT*eG*eT*e[5mC]*d[5mC]*dT*d[5mC]*dT*dT*dG*dG*dT*dT*dA*eA*eA*eG*e[5mC]*eT) [compound 227479]” to “227518 (antisense e[5mC]*eA*e[5mC]*eG*eG*d[5mC]*dT*dT*dA*d[5mC]*d[5mC]*dT*dA*dT*dT*eT*e[5mC]*eG*eT*e[5mC]) [compound 227518]”, the “% INHIB” value falls from 59% to 6%.

Going from “227459 (antisense e[5mC]*eT*eG*eA*eA*d[5mC]*dT*d[5mC]*dG*d[5mC]*dT*dG*dT*dA*d[5mC]*eT*eT*eT*eT*e[5mC]) [compound 227459]” to “227486 (antisense e[5mC]*eG*eG*eT*eG*dT*dG*dA*dA*d[5mC]*d[5mC]*dG*dT*dG*dG*eT*eG*eT*eA*eG) [compound 227486]”, the “% INHIB” value falls from 60% to 39%.

Going from “227467 (antisense e[5mC]*eA*eT*e[5mC]*eA*dT*dT*dG*dT*dA*dG*dA*dA*dG*dT*e[5mC]*eG*eG*eG*eT) [compound 227467]” to “227520 (antisense e[5mC]*eA*eT*e[5mC]*eT*dT*dA*dA*dT*d[5mC]*d[5mC]*dT*dT*dG*dG*eA*eA*eA*e[5mC]*eA) [compound 227520]”, the “% INHIB” value rises from 33% to 42%.

For “227473 (antisense eA*eA*eG*eT*e[5mC]*dA*dA*dT*dG*dT*dT*dT*dG*d[5mC]*d[5mC]*eA*eG*eT*eG*eA) [compound 227473]”, the “% INHIB” value was 71%.
